The values that follow come from the supplement of paper PMC10307832.

What all share (assay): relative viability (nuclei count vs DMSO), 5 days (fraction); higher = more cells survive
Compound in the assay “Everolimus + Trametinib”: CO[C@H]1C[C@@H]2CC[C@@H](C)[C@@](O)(O2)C(=O)C(=O)N2CCCC[C@H]2C(=O)O[C@H]([C@H](C)C[C@@H]2CC[C@@H](OCCO)[C@H](OC)C2)CC(=O)[C@H](C)/C=C(\C)[C@@H](O)[C@@H](OC)C(=O)[C@H](C)C[C@H](C)/C=C/C=C/C=C/1C [Everolimus] + CC(=O)Nc1cccc(-n2c(=O)n(C3CC3)c(=O)c3c(Nc4ccc(I)cc4F)n(C)c(=O)c(C)c32)c1 [Trametinib] (partner 0.02 µM)
The procedure, abridged: (§1)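 For relative viability, nuclei counts in treated wells were divided by those in vehicle wells. Lung cancer cell lines had been pin-tool dosed in 1536-well plates the day after seeding and cultured for 5 days, then fixed and stained in one step (final 0.05% Triton X-100, 1% formaldehyde, 1 ug/ml Hoechst) and imaged at 4×. Doses were one drug alone or a fixed anchor-drug dose plus five library-drug doses (not always all listed) in √10 steps, and values are duplicate-plate medians.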

Compound in the assay “Everolimus + Navitoclax”: CO[C@H]1C[C@@H]2CC[C@@H](C)[C@@](O)(O2)C(=O)C(=O)N2CCCC[C@H]2C(=O)O[C@H]([C@H](C)C[C@@H]2CC[C@@H](OCCO)[C@H](OC)C2)CC(=O)[C@H](C)/C=C(\C)[C@@H](O)[C@@H](OC)C(=O)[C@H](C)C[C@H](C)/C=C/C=C/C=C/1C [Everolimus] + CC1(C)CCC(c2ccc(Cl)cc2)=C(CN2CCN(c3ccc(C(=O)NS(=O)(=O)c4ccc(N[C@H](CCN5CCOCC5)CSc5ccccc5)c(S(=O)(=O)C(F)(F)F)c4)cc3)CC2)C1 [Navitoclax] (partner 0.5 µM)
A digest of the protocol:
as §1

Compound in the assay “Everolimus + Pemetrexed”: CO[C@H]1C[C@@H]2CC[C@@H](C)[C@@](O)(O2)C(=O)C(=O)N2CCCC[C@H]2C(=O)O[C@H]([C@H](C)C[C@@H]2CC[C@@H](OCCO)[C@H](OC)C2)CC(=O)[C@H](C)/C=C(\C)[C@@H](O)[C@@H](OC)C(=O)[C@H](C)C[C@H](C)/C=C/C=C/C=C/1C [Everolimus] + Nc1nc2[nH]cc(CCc3ccc(C(=O)N[C@@H](CCC(=O)O)C(=O)O)cc3)c2c(=O)[nH]1 [Pemetrexed] (partner 0.2 µM)
A digest of the protocol:
as §1

Compound in the assay “Everolimus + Phenformin”: CO[C@H]1C[C@@H]2CC[C@@H](C)[C@@](O)(O2)C(=O)C(=O)N2CCCC[C@H]2C(=O)O[C@H]([C@H](C)C[C@@H]2CC[C@@H](OCCO)[C@H](OC)C2)CC(=O)[C@H](C)/C=C(\C)[C@@H](O)[C@@H](OC)C(=O)[C@H](C)C[C@H](C)/C=C/C=C/C=C/1C [Everolimus] + N=C(N)NC(=N)NCCc1ccccc1 [Phenformin] (partner 250 µM)
The procedure, abridged:
as §1

As to NCI-H441, the relative viability with Everolimus + Trametinib (first compound 0.01 µM) was found to be 0.373; with Everolimus + Trametinib (first compound 0.03162 µM) it was 0.306; with Everolimus + Trametinib (first compound 0.1 µM), 0.327; with Everolimus + Trametinib (first compound 0.3162 µM), 0.357; in the assay with Everolimus + Trametinib (first compound 1 µM) it was 0.29; with Everolimus + Navitoclax (first compound 0.01 µM), 0.658. The relative viability with Everolimus + Navitoclax (first compound 0.03162 µM) was 0.577; with Everolimus + Navitoclax (first compound 0.1 µM) it was 0.79; with Everolimus + Navitoclax (first compound 0.3162 µM), 0.73; in the assay with Everolimus + Navitoclax (first compound 1 µM), 0.482; with Everolimus + Pemetrexed (first compound 0.01 µM) it was 0.275; with Everolimus + Pemetrexed (first compound 0.03162 µM), 0.276. Moreover, the relative viability in the assay with Everolimus + Pemetrexed (first compound 0.1 µM) stood at 0.269; in the assay with Everolimus + Pemetrexed (first compound 0.3162 µM) it was 0.262; with Everolimus + Pemetrexed (first compound 1 µM), 0.286; in the assay with Everolimus + Phenformin (first compound 0.01 µM), 0.798; with Everolimus + Phenformin (first compound 0.03162 µM), 0.605; with Everolimus + Phenformin (first compound 0.1 µM), 0.585. The relative viability with Everolimus + Phenformin (first compound 0.3162 µM) turned out to be 0.772; in the assay with Everolimus + Phenformin (first compound 1 µM), 0.666.

For NCI-H1793, the relative viability with Everolimus + Trametinib (first compound 0.01 µM) was determined as 0.315; with Everolimus + Trametinib (first compound 0.03162 µM), 0.247; in the assay with Everolimus + Trametinib (first compound 0.1 µM), 0.247; with Everolimus + Trametinib (first compound 0.3162 µM), 0.312; in the assay with Everolimus + Trametinib (first compound 1 µM) it was 0.228; with Everolimus + Navitoclax (first compound 0.01 µM), 0.285. Moreover, the relative viability in the assay with Everolimus + Navitoclax (first compound 0.03162 µM) is 0.165; with Everolimus + Navitoclax (first compound 0.1 µM), 0.247; with Everolimus + Navitoclax (first compound 0.3162 µM) it was 0.258; with Everolimus + Navitoclax (first compound 1 µM), 0.184; in the assay with Everolimus + Pemetrexed (first compound 0.01 µM), 0.373; with Everolimus + Pemetrexed (first compound 0.03162 µM), 0.332. The relative viability in the assay with Everolimus + Pemetrexed (first compound 0.1 µM) stood at 0.319; with Everolimus + Pemetrexed (first compound 0.3162 µM) it was 0.351; in the assay with Everolimus + Pemetrexed (first compound 1 µM), 0.251; with Everolimus + Phenformin (first compound 0.01 µM), 0.294; with Everolimus + Phenformin (first compound 0.03162 µM), 0.242; with Everolimus + Phenformin (first compound 0.1 µM), 0.329. Further, the values for the relative viability in the assay with Everolimus + Phenformin (first compound 0.3162 µM) and with Everolimus + Phenformin (first compound 1 µM) were 0.313 and 0.29, respectively.

As for NCI-H23, the relative viability with Everolimus + Trametinib (first compound 0.01 µM) amounted to 0.248; in the assay with Everolimus + Trametinib (first compound 0.03162 µM), 0.204; in the assay with Everolimus + Trametinib (first compound 0.1 µM), 0.218; in the assay with Everolimus + Trametinib (first compound 0.3162 µM), 0.252; with Everolimus + Trametinib (first compound 1 µM), 0.216; in the assay with Everolimus + Navitoclax (first compound 0.01 µM), 0.556. Moreover, the relative viability with Everolimus + Navitoclax (first compound 0.03162 µM) turned out to be 0.424; with Everolimus + Navitoclax (first compound 0.1 µM) it was 0.44; with Everolimus + Navitoclax (first compound 0.3162 µM), 0.544; in the assay with Everolimus + Navitoclax (first compound 1 µM), 0.557; in the assay with Everolimus + Pemetrexed (first compound 0.01 µM), 0.55; with Everolimus + Pemetrexed (first compound 0.03162 µM) it was 0.398. Moreover, the relative viability amounted to 0.607 with Everolimus + Pemetrexed (first compound 0.1 µM); 0.535 with Everolimus + Pemetrexed (first compound 0.3162 µM); 0.472 with Everolimus + Pemetrexed (first compound 1 µM); 0.641 with Everolimus + Phenformin (first compound 0.01 µM); 0.607 with Everolimus + Phenformin (first compound 0.03162 µM); 0.508 with Everolimus + Phenformin (first compound 0.1 µM). The relative viability worked out at 0.593 with Everolimus + Phenformin (first compound 0.3162 µM) and 0.496 with Everolimus + Phenformin (first compound 1 µM).

Consider HARA, for which the relative viability with Everolimus + Trametinib (first compound 0.01 µM) turned out to be 0.425; in the assay with Everolimus + Trametinib (first compound 0.03162 µM) it was 0.394; with Everolimus + Trametinib (first compound 0.1 µM), 0.346; in the assay with Everolimus + Trametinib (first compound 0.3162 µM) it was 0.559; with Everolimus + Trametinib (first compound 1 µM), 0.339; with Everolimus + Navitoclax (first compound 0.01 µM), 1.14. Further, the relative viability with Everolimus + Navitoclax (first compound 0.03162 µM) is 1.2; with Everolimus + Navitoclax (first compound 0.1 µM) it was 1.12; with Everolimus + Navitoclax (first compound 0.3162 µM) it was 1.11; in the assay with Everolimus + Navitoclax (first compound 1 µM), 0.898; in the assay with Everolimus + Pemetrexed (first compound 0.01 µM), 0.294; in the assay with Everolimus + Pemetrexed (first compound 0.03162 µM), 0.245. Also, the relative viability with Everolimus + Pemetrexed (first compound 0.1 µM) was determined as 0.26; in the assay with Everolimus + Pemetrexed (first compound 0.3162 µM) it was 0.238; with Everolimus + Pemetrexed (first compound 1 µM), 0.202; with Everolimus + Phenformin (first compound 0.01 µM), 0.412; with Everolimus + Phenformin (first compound 0.03162 µM) it was 0.489; with Everolimus + Phenformin (first compound 0.3162 µM) it was 0.419. For the same cell line, the relative viability with Everolimus + Phenformin (first compound 1 µM) was 0.466.

Consider NCI-H1792, for which the relative viability with Everolimus + Trametinib (first compound 0.01 µM) is 0.196; in the assay with Everolimus + Trametinib (first compound 0.03162 µM) it was 0.251; with Everolimus + Trametinib (first compound 0.1 µM) it was 0.215; with Everolimus + Trametinib (first compound 0.3162 µM), 0.164; with Everolimus + Trametinib (first compound 1 µM) it was 0.16; in the assay with Everolimus + Navitoclax (first compound 0.01 µM), 0.316. Also, the relative viability worked out at 0.251 with Everolimus + Navitoclax (first compound 0.03162 µM); 0.29 in the assay with Everolimus + Navitoclax (first compound 0.1 µM); 0.244 with Everolimus + Navitoclax (first compound 0.3162 µM); 0.362 with Everolimus + Navitoclax (first compound 1 µM); 0.335 in the assay with Everolimus + Pemetrexed (first compound 0.01 µM); 0.245 with Everolimus + Pemetrexed (first compound 0.03162 µM). For the same cell line, the relative viability with Everolimus + Pemetrexed (first compound 0.1 µM) is 0.318; with Everolimus + Pemetrexed (first compound 0.3162 µM) it was 0.315; with Everolimus + Pemetrexed (first compound 1 µM) it was 0.183; with Everolimus + Phenformin (first compound 0.01 µM), 0.154; in the assay with Everolimus + Phenformin (first compound 0.03162 µM), 0.129; in the assay with Everolimus + Phenformin (first compound 0.1 µM), 0.162. Further, the relative viability in the assay with Everolimus + Phenformin (first compound 0.3162 µM) stood at 0.129; with Everolimus + Phenformin (first compound 1 µM), 0.0809.

For the cell line NCI-H1703, the relative viability with Everolimus + Navitoclax (first compound 0.01 µM) came to 0.443; with Everolimus + Navitoclax (first compound 0.03162 µM), 0.453; in the assay with Everolimus + Navitoclax (first compound 0.1 µM) it was 0.553; in the assay with Everolimus + Navitoclax (first compound 0.3162 µM), 0.457; with Everolimus + Navitoclax (first compound 1 µM) it was 0.671.

As for NCI-H1648, the relative viability is 0.388 with Everolimus + Trametinib (first compound 0.01 µM); 0.435 with Everolimus + Trametinib (first compound 0.03162 µM); 0.395 with Everolimus + Trametinib (first compound 0.1 µM); 0.307 in the assay with Everolimus + Trametinib (first compound 0.3162 µM); 0.325 with Everolimus + Trametinib (first compound 1 µM); 0.544 with Everolimus + Pemetrexed (first compound 0.01 µM). Also, the relative viability was found to be 0.538 with Everolimus + Pemetrexed (first compound 0.03162 µM), 0.659 with Everolimus + Pemetrexed (first compound 0.1 µM), 0.629 with Everolimus + Pemetrexed (first compound 0.3162 µM) and 0.742 with Everolimus + Pemetrexed (first compound 1 µM).

In the case of CAL-12T, the relative viability in the assay with Everolimus + Trametinib (first compound 0.01 µM) worked out at 0.193; with Everolimus + Trametinib (first compound 0.03162 µM) it was 0.187; in the assay with Everolimus + Trametinib (first compound 0.1 µM), 0.172; with Everolimus + Trametinib (first compound 0.3162 µM) it was 0.191; in the assay with Everolimus + Trametinib (first compound 1 µM), 0.191; in the assay with Everolimus + Navitoclax (first compound 0.01 µM), 0.438. For the same cell line, the relative viability turned out to be 0.452 with Everolimus + Navitoclax (first compound 0.03162 µM); 0.35 with Everolimus + Navitoclax (first compound 0.1 µM); 0.423 in the assay with Everolimus + Navitoclax (first compound 0.3162 µM); 0.498 with Everolimus + Navitoclax (first compound 1 µM); 0.572 with Everolimus + Pemetrexed (first compound 0.01 µM); 0.58 in the assay with Everolimus + Pemetrexed (first compound 0.03162 µM). Besides, the relative viability is 0.664 in the assay with Everolimus + Pemetrexed (first compound 0.1 µM); 0.653 in the assay with Everolimus + Pemetrexed (first compound 0.3162 µM); 0.627 with Everolimus + Pemetrexed (first compound 1 µM); 0.472 in the assay with Everolimus + Phenformin (first compound 0.01 µM); 0.549 in the assay with Everolimus + Phenformin (first compound 0.03162 µM); 0.356 with Everolimus + Phenformin (first compound 0.1 µM). Besides, the relative viability with Everolimus + Phenformin (first compound 0.3162 µM) worked out at 0.503; with Everolimus + Phenformin (first compound 1 µM), 0.482.

Take NCI-H727: the relative viability with Everolimus + Trametinib (first compound 0.01 µM) worked out at 0.433; in the assay with Everolimus + Trametinib (first compound 0.03162 µM), 0.385; in the assay with Everolimus + Trametinib (first compound 0.1 µM), 0.337; in the assay with Everolimus + Trametinib (first compound 0.3162 µM) it was 0.363; with Everolimus + Trametinib (first compound 1 µM), 0.342; in the assay with Everolimus + Navitoclax (first compound 0.01 µM), 0.263. For the same cell line, the relative viability came out at 0.211 with Everolimus + Navitoclax (first compound 0.03162 µM); 0.179 in the assay with Everolimus + Navitoclax (first compound 0.1 µM); 0.231 with Everolimus + Navitoclax (first compound 0.3162 µM); 0.208 with Everolimus + Navitoclax (first compound 1 µM); 0.462 with Everolimus + Phenformin (first compound 0.01 µM); 0.457 in the assay with Everolimus + Phenformin (first compound 0.03162 µM). In addition, the relative viability with Everolimus + Phenformin (first compound 0.3162 µM) came to 0.485; with Everolimus + Phenformin (first compound 1 µM), 0.368.
